The target of the first assay is T1, Alpha-1D adrenergic receptor (Homo sapiens, UniProt P25100). Note: in other assays of this panel Not Active means under 50% inhibition at 10 µM.
T1 sequence (P25100 whole entry): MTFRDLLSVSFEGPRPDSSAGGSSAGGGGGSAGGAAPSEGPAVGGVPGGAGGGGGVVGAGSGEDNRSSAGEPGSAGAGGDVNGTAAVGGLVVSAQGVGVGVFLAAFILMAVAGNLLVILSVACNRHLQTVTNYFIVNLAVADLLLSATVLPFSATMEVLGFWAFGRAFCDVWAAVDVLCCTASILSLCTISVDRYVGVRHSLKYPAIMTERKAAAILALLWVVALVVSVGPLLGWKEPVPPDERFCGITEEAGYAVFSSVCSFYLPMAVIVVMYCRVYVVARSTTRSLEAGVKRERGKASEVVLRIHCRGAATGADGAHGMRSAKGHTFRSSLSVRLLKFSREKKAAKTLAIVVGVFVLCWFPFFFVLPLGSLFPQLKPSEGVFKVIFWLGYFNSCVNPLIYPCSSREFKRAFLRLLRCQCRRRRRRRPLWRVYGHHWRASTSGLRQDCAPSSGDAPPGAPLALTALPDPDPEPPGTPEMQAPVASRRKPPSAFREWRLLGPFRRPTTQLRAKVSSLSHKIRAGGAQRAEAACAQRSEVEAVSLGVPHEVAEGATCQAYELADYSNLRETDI
The class given is cell membranes, HEK293, Membrane. The following applies: hek293.
C-C chemokine receptor type 5, sequence (P51681 whole entry): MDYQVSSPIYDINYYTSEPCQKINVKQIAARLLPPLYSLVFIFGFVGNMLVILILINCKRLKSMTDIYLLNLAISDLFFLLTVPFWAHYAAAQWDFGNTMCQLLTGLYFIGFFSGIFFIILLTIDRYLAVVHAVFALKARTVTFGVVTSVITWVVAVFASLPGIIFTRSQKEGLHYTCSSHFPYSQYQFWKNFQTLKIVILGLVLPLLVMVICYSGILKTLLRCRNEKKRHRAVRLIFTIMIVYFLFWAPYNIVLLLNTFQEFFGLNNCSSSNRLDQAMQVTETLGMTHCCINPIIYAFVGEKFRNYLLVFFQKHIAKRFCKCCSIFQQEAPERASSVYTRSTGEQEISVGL
As to `Clc1cc2c(cc1Cl)Oc1cc(Cl)c(Cl)cc1O2` [2,3,7,8-TETRACHLORODIBENZO-P-DIOXIN], the IC50 entry is “Not Active”.

Consider `Nc1nc(N)nc(NC2CC2)n1` [CYROMAZINE], for which the IC50 entry is given as “Not Active”.

With `Cc1cnc(C(=O)NCCc2ccc(S(=O)(=O)NC(=O)NC3CCCCC3)cc2)cn1` [GLIPIZIDE], the IC50 entry is listed as “Not Active”.

As to `COc1ccc(Cc2nccc3cc(OC)c(OC)cc23)cc1OC` [PAPAVERINE], the IC50 result is “Not Active”.

The next assay addresses T2, Vasoactive intestinal polypeptide receptor 1 (Homo sapiens, UniProt P32241).
T2 sequence (P32241 whole entry): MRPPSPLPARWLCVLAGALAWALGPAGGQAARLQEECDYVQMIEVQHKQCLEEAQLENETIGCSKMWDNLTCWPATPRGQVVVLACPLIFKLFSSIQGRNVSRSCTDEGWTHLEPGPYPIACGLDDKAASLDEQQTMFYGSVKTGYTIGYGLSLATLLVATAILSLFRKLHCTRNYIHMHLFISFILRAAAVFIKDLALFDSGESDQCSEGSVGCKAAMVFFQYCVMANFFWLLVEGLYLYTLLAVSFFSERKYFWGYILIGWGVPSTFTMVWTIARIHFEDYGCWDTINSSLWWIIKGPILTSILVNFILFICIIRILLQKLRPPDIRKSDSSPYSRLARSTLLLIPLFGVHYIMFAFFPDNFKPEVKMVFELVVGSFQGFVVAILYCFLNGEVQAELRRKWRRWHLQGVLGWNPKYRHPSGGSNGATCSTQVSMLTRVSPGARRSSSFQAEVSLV
In kind it is cell membranes, Membrane. The following applies: ht-29.
For the compound `Clc1cc2c(cc1Cl)Oc1cc(Cl)c(Cl)cc1O2` [2,3,7,8-TETRACHLORODIBENZO-P-DIOXIN], the IC50 result is “Not Active”.

Consider `Nc1nc(N)nc(NC2CC2)n1` [CYROMAZINE], for which the IC50 result is reported as “Not Active”.

As to `Cc1cnc(C(=O)NCCc2ccc(S(=O)(=O)NC(=O)NC3CCCCC3)cc2)cn1` [GLIPIZIDE], the IC50 result is “Not Active”.

Consider `COc1ccc(Cc2nccc3cc(OC)c(OC)cc23)cc1OC` [PAPAVERINE], for which the IC50 entry was “Not Active”.

Another assay addresses C-C chemokine receptor type 5 (Homo sapiens, UniProt P51681). The class given is cell membranes, Membrane. To be noted: hek293.
Consider `Clc1cc2c(cc1Cl)Oc1cc(Cl)c(Cl)cc1O2` [2,3,7,8-TETRACHLORODIBENZO-P-DIOXIN], for which the IC50 result is recorded as “Not Active”.

As to `Nc1nc(N)nc(NC2CC2)n1` [CYROMAZINE], the IC50 result is “Not Active”.

Take `Cc1cnc(C(=O)NCCc2ccc(S(=O)(=O)NC(=O)NC3CCCCC3)cc2)cn1` [GLIPIZIDE]: the IC50 entry is “Not Active”.

Regarding `COc1ccc(Cc2nccc3cc(OC)c(OC)cc23)cc1OC` [PAPAVERINE], the IC50 result was “Not Active”.

A further assay has as its target T3, C-X-C chemokine receptor type 2 (Homo sapiens, UniProt P25025). Note: in other assays of this panel Not Active means under 50% inhibition at 10 µM.
T3 sequence (P25025 whole entry): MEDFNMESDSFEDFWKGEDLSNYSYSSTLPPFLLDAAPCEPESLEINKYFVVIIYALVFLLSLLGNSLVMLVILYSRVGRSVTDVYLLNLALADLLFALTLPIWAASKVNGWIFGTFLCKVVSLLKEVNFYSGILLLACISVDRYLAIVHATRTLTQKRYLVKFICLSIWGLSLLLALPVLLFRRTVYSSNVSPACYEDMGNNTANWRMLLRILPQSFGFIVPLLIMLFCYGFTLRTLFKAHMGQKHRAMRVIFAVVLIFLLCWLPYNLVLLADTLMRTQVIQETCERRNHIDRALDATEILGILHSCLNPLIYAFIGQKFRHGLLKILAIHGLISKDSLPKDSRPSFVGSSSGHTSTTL
The class given is cell membranes, Membrane. To be noted: cho-k1.
`Clc1cc2c(cc1Cl)Oc1cc(Cl)c(Cl)cc1O2` [2,3,7,8-TETRACHLORODIBENZO-P-DIOXIN]: the IC50 result is given as “Not Active”.

`Nc1nc(N)nc(NC2CC2)n1` [CYROMAZINE]: the IC50 entry is on record as “Not Active”.

For the compound `Cc1cnc(C(=O)NCCc2ccc(S(=O)(=O)NC(=O)NC3CCCCC3)cc2)cn1` [GLIPIZIDE], the IC50 entry is “Not Active”.

As for `COc1ccc(Cc2nccc3cc(OC)c(OC)cc23)cc1OC` [PAPAVERINE], the IC50 result is “Not Active”.

A further assay deals with T4, Nitric oxide synthase, inducible (Mus musculus, UniProt P29477).
T4 sequence (P29477 whole entry): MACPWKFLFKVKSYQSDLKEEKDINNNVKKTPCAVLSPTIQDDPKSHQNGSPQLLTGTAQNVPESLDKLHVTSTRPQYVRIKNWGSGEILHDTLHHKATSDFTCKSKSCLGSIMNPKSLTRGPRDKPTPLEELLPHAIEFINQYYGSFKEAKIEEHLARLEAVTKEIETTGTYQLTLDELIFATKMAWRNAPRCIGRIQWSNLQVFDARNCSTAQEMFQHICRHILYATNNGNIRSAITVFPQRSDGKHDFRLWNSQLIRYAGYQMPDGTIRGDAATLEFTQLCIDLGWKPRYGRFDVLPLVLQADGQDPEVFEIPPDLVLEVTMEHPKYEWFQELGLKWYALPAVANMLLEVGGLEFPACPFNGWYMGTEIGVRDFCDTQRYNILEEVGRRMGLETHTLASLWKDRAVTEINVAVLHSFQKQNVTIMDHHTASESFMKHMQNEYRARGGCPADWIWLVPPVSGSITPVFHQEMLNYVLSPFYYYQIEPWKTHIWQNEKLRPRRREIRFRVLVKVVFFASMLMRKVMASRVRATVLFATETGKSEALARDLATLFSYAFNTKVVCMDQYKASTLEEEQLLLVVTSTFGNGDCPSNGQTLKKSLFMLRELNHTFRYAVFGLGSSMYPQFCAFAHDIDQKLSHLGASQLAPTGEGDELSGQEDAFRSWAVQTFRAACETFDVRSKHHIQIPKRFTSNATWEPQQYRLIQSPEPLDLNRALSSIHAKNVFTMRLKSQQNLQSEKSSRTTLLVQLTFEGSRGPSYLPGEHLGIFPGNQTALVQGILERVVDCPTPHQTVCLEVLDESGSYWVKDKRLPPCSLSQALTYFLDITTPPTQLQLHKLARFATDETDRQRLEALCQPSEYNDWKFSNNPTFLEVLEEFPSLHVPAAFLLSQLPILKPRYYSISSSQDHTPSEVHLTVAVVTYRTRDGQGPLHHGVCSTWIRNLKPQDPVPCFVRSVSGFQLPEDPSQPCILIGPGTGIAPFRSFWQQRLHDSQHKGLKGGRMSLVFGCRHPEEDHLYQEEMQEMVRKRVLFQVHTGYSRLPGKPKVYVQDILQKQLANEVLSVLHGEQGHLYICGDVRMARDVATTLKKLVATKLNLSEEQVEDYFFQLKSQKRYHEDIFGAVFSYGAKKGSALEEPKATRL
On the set-up: species or system Escherichia coli.
Details: not given
For `Clc1cc2c(cc1Cl)Oc1cc(Cl)c(Cl)cc1O2` [2,3,7,8-TETRACHLORODIBENZO-P-DIOXIN], the IC50 entry is listed as “Not Active”.

In the case of `Nc1nc(N)nc(NC2CC2)n1` [CYROMAZINE], the IC50 result was “Not Active”.

Consider `COc1ccc(Cc2nccc3cc(OC)c(OC)cc23)cc1OC` [PAPAVERINE], for which the IC50 entry was “Not Active”.

The next assay deals with Kappa-type opioid receptor (Homo sapiens, UniProt P41145). The assay is described as follows: DRUGMATRIX: Opiate kappa (OP2, KOP) radioligand binding (ligand: [3H] Diprenorphine). The class given is cell membranes, HEK293, Membrane. To be noted: hek293; Not Active = under 50% inhibition at 10 µM.
Kappa-type opioid receptor, sequence (P41145 whole entry): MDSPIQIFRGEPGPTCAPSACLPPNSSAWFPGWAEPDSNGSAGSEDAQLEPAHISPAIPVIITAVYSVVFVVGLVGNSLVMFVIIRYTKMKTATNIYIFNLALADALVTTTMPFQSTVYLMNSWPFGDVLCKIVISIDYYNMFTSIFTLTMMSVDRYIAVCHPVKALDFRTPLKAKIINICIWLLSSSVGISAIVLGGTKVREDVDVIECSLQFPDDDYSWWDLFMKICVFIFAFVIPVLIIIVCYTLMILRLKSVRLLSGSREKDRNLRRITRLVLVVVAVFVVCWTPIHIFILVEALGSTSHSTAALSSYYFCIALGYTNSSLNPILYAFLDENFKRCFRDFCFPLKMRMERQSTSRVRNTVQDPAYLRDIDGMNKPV
Regarding `Cc1cnc(C(=O)NCCc2ccc(S(=O)(=O)NC(=O)NC3CCCCC3)cc2)cn1` [GLIPIZIDE], the IC50 entry is given as “Not Active”.

Tested on in a further assay: not listed separately
Put plainly: DRUGMATRIX: Platelet-Derived Growth Factor (PDGF) radioligand binding (ligand: [125I] PDGF). In kind it is cell-based. The following applies: nih3t3; Not Active = under 50% inhibition at 10 µM.
With `Clc1cc2c(cc1Cl)Oc1cc(Cl)c(Cl)cc1O2` [2,3,7,8-TETRACHLORODIBENZO-P-DIOXIN], the IC50 result is reported as “Not Active” and the Ki entry was “Not Active”.

With `Nc1nc(N)nc(NC2CC2)n1` [CYROMAZINE], the IC50 result was “Not Active” and the Ki result was “Not Active”.

As to `Cc1cnc(C(=O)NCCc2ccc(S(=O)(=O)NC(=O)NC3CCCCC3)cc2)cn1` [GLIPIZIDE], the IC50 result was “Not Active” and the Ki entry was “Not Active”.

For the compound `COc1ccc(Cc2nccc3cc(OC)c(OC)cc23)cc1OC` [PAPAVERINE], the IC50 entry is given as “Not Active” and the Ki entry is “Not Active”.

These data come from ChEMBL document CHEMBL1909046, “DrugMatrix in vitro pharmacology data”.
